The results in this text go back to patent US10626115B2, “Fused pyrimidinone and triazinone derivatives containing bridged nitrogen, their process of preparation and their therapeutic uses as antifungal and/or antiparasitic agents” (UNIVERSITE DE NANTES, priority 2015, dated 2020).

Data set [1] concerns fluconazole-resistant C. albicans strain CAAL117 (erg11 mutations+voriconazole-resistant). Kind of data set: microbe, parasite or virus in culture. The following applies: for MIC: Candida albicans, read-out: MIC values CAAL117; for fold more active than voriconazole against CAAL117: compared with voriconazole. Format: cell-based. The procedure:
(§1) Eight strains of Candida spp. with various azoles-susceptibilities were used: • One fluconazole-susceptible C. albicans strain: CAAL93 • Two fluconazole-resistant C. albicans strains: CAAL111 (efflux pump) and CAAL117 (erg11 mutations+voriconazole-resistant) • five fluconazole-resistant Candida non albicans strains: C. krusei (CAKR7, CAKR8), C. glabrata (CAGL2), C. parapsilosis s.l. (CAPA1, CAPA2).
(§2) Antifungal susceptibility was evaluated with a spectrofluorimetric microdilution method.

Data set [2] concerns fluconazole-resistant C. krusei (CAKR8). Kind of data set: microbe, parasite or virus in culture. The settings on record: Pichia kudriavzevii, read-out: MIC values CAKR8. The class given is cell-based. The procedure:
as §1, §2

In data set [3] the test system is fluconazole-resistant C. glabrata (CAGL2). Nature of the data set: microbe, parasite or virus in culture. Format: cell-based. The following applies: Nakaseomyces glabratus, read-out: MIC values CAGL2. The procedure:
as §1, §2

Data set [4] deals with fluconazole-resistant C. krusei (CAKR7). Kind of data set: microbe, parasite or virus in culture. Format: cell-based. The settings on record: Pichia kudriavzevii, read-out: MIC values CAKR7. The procedure: as §1, §2
Data set [5] concerns fluconazole-susceptible C. albicans strain: CAAL93. Nature of the data set: Antifungal susceptibility, spectrofluorimetric microdilution, CAAL93. The class given is cell-based. The settings on record: Candida albicans, read-out: MIC values CAAL93. The procedure: as §1, §2
For orientation: Dilution methods test growth across graded concentrations, often in twofold steps.

The test system of data set [6] is A. fumigatus susceptible strain ASFU38A. Nature of the data set: Antifungal susceptibility, spectrofluorimetric microdilution, ASFU38A. Format: cell-based, Aspergillus fumigatus. The settings on record: Aspergillus fumigatus, read-out: MIC values ASFU38A. The procedure:
(§3) Eleven strains of A. fumigatus with various itraconazole susceptibility were used: • Five susceptible strains: ASFU7, ASFU35A, ASFU38A, ASFU76 and ASFU78. • Six itraconazole-resistant strains: ASFU77 (erg11 mutation), ASFU13, ASFU17, ASFU19, ASFU20, ASFU23.
(§4) Antifungal susceptibility was evaluated with a spectrofluorimetric microdilution method. MIC was the concentration that was able to inhibit 80% of fluorescence measured in the control wells.

For data set [7], the system named is A. fumigatus susceptible strain ASFU78. Nature of the data set: Antifungal susceptibility, spectrofluorimetric microdilution, ASFU78. Format: cell-based, Aspergillus fumigatus. The settings on record: Aspergillus fumigatus, read-out: MIC values ASFU78. The procedure:
as §3, §4

In data set [8] the test system is A. fumigatus susceptible strain ASFU7. Kind of data set: Antifungal susceptibility, spectrofluorimetric microdilution, ASFU7. The class given is cell-based, Aspergillus fumigatus. The settings on record: Aspergillus fumigatus, read-out: MIC values ASFU7. The procedure: as §3, §4
The test system of data set [9] is A. fumigatus susceptible strain ASFU76. Kind of data set: Antifungal susceptibility, spectrofluorimetric microdilution, ASFU76. The class given is cell-based, Aspergillus fumigatus. The settings on record: Aspergillus fumigatus, read-out: MIC values ASFU76. The procedure: as §3, §4
Data set [10] has as its system A. fumigatus susceptible strain ASFU35A. Kind of data set: Antifungal susceptibility, spectrofluorimetric microdilution, ASFU35A. Format: cell-based, Aspergillus fumigatus. The following applies: Aspergillus fumigatus, read-out: MIC values ASFU35A. The procedure: as §3, §4
Data set [11] relates to A. fumigatus itraconazole-resistant strain ASFU77 (erg11 mutation). Kind of data set: Antifungal susceptibility, spectrofluorimetric microdilution, ASFU77. The settings on record: for MIC: Aspergillus fumigatus, read-out: MIC values ASFU77. The class given is cell-based, Aspergillus fumigatus. The procedure: as §3, §4
The test system of data set [12] is fluconazole-resistant C. albicans strain CAAL111 (efflux pump). Nature of the data set: microbe, parasite or virus in culture. The class given is cell-based. The settings on record: Candida albicans, read-out: MIC values CAAL111. The procedure: as §1, §2
Data set [13] concerns A. fumigatus itraconazole-resistant strain ASFU19. Nature of the data set: Antifungal susceptibility, spectrofluorimetric microdilution, ASFU19. Format: cell-based, Aspergillus fumigatus. The following applies: Aspergillus fumigatus, read-out: MIC values ASFU19. The procedure:
as §3, §4

Data set [14] deals with A. fumigatus itraconazole-resistant strain ASFU17. Kind of data set: Antifungal susceptibility, spectrofluorimetric microdilution, ASFU17. Format: cell-based, Aspergillus fumigatus. The following applies: Aspergillus fumigatus, read-out: MIC values ASFU17. The procedure: as §3, §4
The test system of data set [15] is A. fumigatus itraconazole-resistant strain ASFU13. Nature of the data set: Antifungal susceptibility, spectrofluorimetric microdilution, ASFU13. The class given is cell-based, Aspergillus fumigatus. The following applies: Aspergillus fumigatus, read-out: MIC values ASFU13. The procedure: as §3, §4
The subject of data set [16] is A. fumigatus itraconazole-resistant strain ASFU20. Nature of the data set: Antifungal susceptibility, spectrofluorimetric microdilution, ASFU20. Format: cell-based, Aspergillus fumigatus. The settings on record: Aspergillus fumigatus, read-out: MIC values ASFU20. The procedure: as §3, §4
Data set [17] relates to A. fumigatus itraconazole-resistant strain ASFU23. Nature of the data set: Antifungal susceptibility, spectrofluorimetric microdilution, ASFU23. Format: cell-based, Aspergillus fumigatus. The following applies: Aspergillus fumigatus, read-out: MIC values ASFU23. The procedure:
as §3, §4

In brackets after ≈: the same amount, converted by molar mass.

In the case of `C[C@@H](n1ncc2cc(-c3ccc(C#N)cc3)cn2c1=O)[C@](O)(Cn1cncn1)c1ccc(F)cc1F` [Compound 49, 4-{3-[(1R,2R)-2-(2,4-Difluorophenyl)-2-hydroxy-1-methyl-3-(1,2,4-triazol-1-yl)propyl]-4-oxo-3,4-dihydro-pyrrolo[1,2-d][1,2,4]triazin-7-yl}benzonitrile], the melting point lay in the range of 201 to 202 °C. In data set [1], the MIC worked out at 0.016 ± 0.001 µg/mL (≈ 0.0328 µM) and the “fold more active than voriconazole against CAAL117” value is reported as 100 fold. Besides, the MIC in [2] came to 0.101 ± 0.014 µg/mL (≈ 0.207 µM). Moreover, the MIC in data set [3] came to 0.025 ± 0.01 µg/mL (≈ 0.0513 µM). In addition, the MIC in [4] came out at 0.058 ± 0.009 µg/mL (≈ 0.119 µM). Besides, the MIC in data set [5] was < 0.048 µg/mL.
`C[C@@H](n1ccc2nc(-c3ccc(Cl)cc3)cn2c1=O)[C@](O)(Cn1cncn1)c1ccc(F)cc1F` [Compound 31, 6-[(1R,2R)-2-(2,4-Difluorophenyl)-2-hydroxy-1-methyl-3-(1H-1,2,4-triazol-1-yl)propyl]-2-(4-chlorophenyl)imidazo[1,2-c]pyrimidin-5-one]: the melting point fell in the range of 158 to 159 °C. Moreover, in data set [6], the MIC was 5.59 ± 0.15 µg/mL (≈ 11.2 µM). In [7], the MIC was 5.72 ± 0.39 µg/mL (≈ 11.5 µM). The MIC in data set [8] amounted to 5.04 µg/mL (≈ 10.1 µM). The MIC in [9] stood at 5.7 ± 0.51 µg/mL (≈ 11.5 µM). In [10], the MIC was determined as 5.81 ± 0.5 µg/mL (≈ 11.7 µM). Moreover, in [11], the “MIC values against ITRA-resistant isolate carrying M220T mutation (ASFU77), in words” value is recorded as “in the micromolar range” and the MIC came out at 5.99 ± 0.33 µg/mL (≈ 12.1 µM). Moreover, in data set [5], the MIC is < 0.001 µg/mL.
In turn, `C[C@@H](n1ncc2cc(-c3ccccc3)cn2c1=O)[C@](O)(Cn1cncn1)c1ccc(F)cc1F` [Compound 47, 3-[(1R,2R)-2-(2,4-Difluorophenyl)-2-hydroxy-1-methyl-3-(1,2,4-triazol-1-yl)propyl]-7-phenyl-3H-pyrrolo[1,2-d][1,2,4]triazin-4-one] registered a melting point of 146 to 147 °C. The MIC in data set [6] amounted to 58.4 ± 15.7 µg/mL (≈ 126 µM). Also, in data set [7], the MIC turned out to be 54.7 ± 12.1 µg/mL (≈ 118 µM). Moreover, in [1], the MIC was 0.014 ± 0.002 µg/mL (≈ 0.0303 µM) and the “fold more active than voriconazole against CAAL117” value was 100 fold. The MIC in data set [2] turned out to be 0.014 µg/mL (≈ 0.0303 µM). Further, in data set [3], the MIC is 0.008 ± 0.005 µg/mL (≈ 0.0173 µM). Further, the MIC in data set [4] came to 0.013 ± 0.001 µg/mL (≈ 0.0281 µM). Further, the MIC in data set [12] stood at 0.016 ± 0.001 µg/mL (≈ 0.0346 µM). Moreover, in [8], the MIC amounted to 44.1 ± 7.76 µg/mL (≈ 95.3 µM). The MIC in data set [9] is 48.4 ± 7.95 µg/mL (≈ 105 µM). For the same compound, the MIC in data set [10] is 41.3 ± 8.61 µg/mL (≈ 89.4 µM). For the same compound, the MIC in data set [11] is 64.8 ± 7.46 µg/mL (≈ 140 µM). The MIC in data set [5] is < 0.001 µg/mL.
Compound `C[C@@H](n1ncc2cccn2c1=O)[C@](O)(Cn1cncn1)c1ccc(F)cc1F` [Compound 44, 3-[(1R,2R)-2-(2,4-Difluorophenyl)-2-hydroxy-1-methyl-3-(1,2,4-triazol-1-yl)propyl]-3H-pyrrolo[1,2-d][1,2,4]triazin-4-one] registered a melting point of 131 to 132 °C. Further, the MIC in data set [6] was found to be 55.1 ± 9.96 µg/mL (≈ 143 µM). The MIC in data set [7] was 19.7 ± 12.9 µg/mL (≈ 51 µM). Also, the MIC in [1] was found to be 0.79 ± 0.092 µg/mL (≈ 2.04 µM). Also, in data set [2], the MIC turned out to be 1.15 µg/mL (≈ 2.98 µM). The MIC in data set [3] was 0.099 ± 0.004 µg/mL (≈ 0.256 µM). In addition, in data set [4], the MIC is 0.625 ± 0.057 µg/mL (≈ 1.62 µM). For the same compound, the MIC in [12] came out at 0.48 ± 0.199 µg/mL (≈ 1.24 µM). Further, the MIC in data set [13] was > 38 µg/mL. Further, the MIC in data set [14] is > 38 µg/mL. Further, the MIC in [8] was 24.3 ± 9.57 µg/mL (≈ 62.9 µM). Moreover, the MIC in [15] was 4.06 µg/mL (≈ 10.5 µM). The MIC in [16] came to 8.04 µg/mL (≈ 20.8 µM). For the same compound, the MIC in data set [9] came to 18.1 ± 10.1 µg/mL (≈ 46.9 µM). Besides, the MIC in data set [10] was determined as 21.4 ± 10.1 µg/mL (≈ 55.3 µM). The MIC in data set [11] is 52.8 ± 4.54 µg/mL (≈ 137 µM). In addition, the MIC in data set [17] worked out at 9.54 µg/mL (≈ 24.7 µM). Moreover, the MIC in data set [5] was < 0.001 µg/mL.

The term melting point denotes the temperature, or range, at which the solid turns liquid.
